Assay results: US20190282616A1, “MACROPHAGES REDIRECT PHAGOCYTOSIS BY NON-PROFESSIONAL PHAGOCYTES AND INFLUENCE INFLAMMATION” (University of Virginia Patent Foundation, priority 2016, published 2019)

Columns and labels:
[1] = system: LR73 cells; experiment: In vitro engulfment assay: apoptotic thymocyte uptake by LR73 cells; format: cell-based, hamster; conditions: for reversal of IGF-1 mediated engulfment suppression in LR73 cells: agent added in the presence of IGF-1; for basal phagocytosis of apoptotic cells with inhibitor alone: without IGF-1; for apoptotic cell uptake (engulfment) by LR73 cells: soluble mediator alone, IGF-I at concentrations reported in serum (100-600 ng/mL), other factors over a range of concentrations; for apoptotic cell uptake by LR73 cells: human insulin or human IGF-II, at higher concentrations than IGF-1
Protocol: (§1) LR73, SVEC-40, BEAS-2B, and 16HBE14o-cells were seeded in a 24 well plate. Thymocytes were isolated from 4-6 week old mice and induced to undergo apoptosis with dexamethasone. Thymocytes or prepared microvesicles were then stained with either CypHer5E (GE Healthcare, PA15401) or TAMRA (Invitrogen, C-1171). LR73 and SVEC-40 cells were incubated with apoptotic thymocytes at a 1:10 phagocyte to target ratio, BEAS-2B at a 1:5 phagocyte to target ratio, and 16HBE14o—at a 1:20 phagocyte to target ratio for 2 hours. Mouse IGF-I (Sigma-Aldrich), human IGF-I (Sigma-Aldrich), human IGF-II (Sigma-Aldrich) were added to the phagocytes at the same time as addition of apoptotic targets. For IGFBP3 studies, IGFBP3 (Sigma-Aldrich) was added to media or supernatant from J774 cells for one hour to allow IGFBP3 to bind to any available IGF-I, then the mix is added to phagocytes along with apoptotic targets. For all pharmacological studies, phagocytes were pre-incubated with the compounds listed below for one hour prior to addition of apoptotic targets: cytochalasin D (Sigma-Aldrich, C8273, 1 μM), Latrunculin A (Tocris, 3973, 150 nM), CK-666 (Tocris, 3950, 25 μM-100 μM), OSI-906 (Selleckchem, S1091, 5 nM-40 nM), NVP-AEW541 (Selleckchem, S1034, 25 nM-100 nM), Rapamycin (Sigma-Aldrich, R0395, […]), MK-2206 2HCl (Selleckchem, S1078, 10 nM-1 U0126-EtOH (Selleckchem, S1102, […]), Wortmannin (Sigma-Aldrich, W1628, 50 nM-200 nM), Y27632 (Calbiochem, 688000, 3.75 μM-15 μM), or GSK269962 (Tocris, 4009, 80 nM-2 μM). […] Targets were then washed off three times with PBS, and the cells were dissociated from the plate with trypsin and the engulfment assessed by flow cytometry.

[2] = system: LR73 cells; conditions: for uptake of PtdSer containing liposomes by LR73 cells: liposomes of 150-200 nm, IGF-1 50 ng/mL, EGF or VEGF 100 ng/mL each; for effect on IGF-1 induced increase in liposome uptake / basal uptake of liposomes: LR73 cells; for effect on IGF-1 induced increase in liposome uptake: inhibitor plus IGF-1; for basal uptake of liposomes: inhibitor without IGF-1
Protocol: as §1
Liposomes were prepared by dissolving the lipids (phosphatidylserine, dioleoyl phosphatidylcholine, cholesterol and the lipid DiD dye) in chloroform, evaporating chloroform under flow of argon gas in a glass vial, then subjecting the lipid layer to overnight lyophilization to remove traces of organic solvent. Then normal saline was added for hydration, and intense vortexing was preformed to prepare multilamellar vesicles (MIN). Liposomes were repeatedly filtered through a 0.2 um Nuclepore polycarbonate filter to prepare smaller particles. Particle size was verified by dynamic light scattering using Nicomp 370.

[3] = system: IGF-1R, Akt and Erk1/2 phosphorylation in LR73 cells; experiment: Immunoblotting of signaling in LR73 cells; format: cell-based, hamster; conditions: for early downstream signaling events (Erk1/2 phosphorylation): serum-starved LR73 cells, 100 ng/mL growth factor; for phosphorylation of IGF-1R and Erk: LR73 cells stimulated with IGF-1 and treated with inhibitor
Protocol: LR73, J774, or BEAS-2B cells were seeded in a 60 mm dish at a concentration of 5×10^5. […] Cells were lysed in RIPA buffer and used in Western blots. The blots were probed for phospho-Erk1/2 (Cell Signaling Technology, #4370), phospho-Akt (Cell Signaling Technology, #4060), phospho-IGF-1R (Cell Signaling, #3024), total Erk2 (Santa Cruz Biotechnology, #sc-154-G), total Akt (Cell Signaling Technology, #4691), total IGF-1R (Cell Signaling, #9750), and anti-B-actin-HRP (Sigma-Aldrich, #A3854) followed by chemiluminescence detection.

[4] = system: peritoneal macrophages; experiment: IGF-1 secretion by peritoneal macrophages (ELISA); format: cell-based, mouse; conditions: treated with IL-4
Protocol: To obtain bone-marrow derived macrophages, femurs were removed from 8 week old mice and flushed with 5 mL of sterile PBS containing 5% FBS. The cell suspension was centrifuged, treated with red blood cell lysis buffer, washed, and then plated onto sterile petri dishes in DMEM containing 10% L929 media, 10% FBS and 1% penicillin/streptomycin/glutamine (PSQ). Media was replenished every 2 to 3 days and differentiated cells were used at day 6 post-harvest. Resident peritoneal macrophages were obtained by flushing the peritoneal cavity of mice with 10 mL of cold PBS containing 5% FBS. Collected cells were spun down, resuspended in X-VIVO 10 (Lonza) and plated at a concentration of 3×10^5 cells per well in a 24 well plate for IGF-1 secretion assays, and 5×10^5 per well in a 24 well plate for engulfment assays. Floating cells were washed the next day and remaining peritoneal macrophages were used 2 days after isolation. […]
IL-4, IL-5, IL-6, and CCL-11/Eotaxin-1 in the BAL fluid of mice that were sensitized with HDM (regimen #1) were quantified by a multiplex Luminex performed by the University of Virginia Flow Cytometry Core Facility. Secretion of IGF-1 from J774 cells, peritoneal macrophages, and BAL fluids, as well as TSLP from BAL fluids, were measured by ELISA (R&D Systems).

[5] = system: IGF-1 in BAL fluid; experiment: In vivo cytokine administration: IGF-1 in BAL fluid; conditions: 1 μg recombinant mouse cytokine intranasally for two consecutive days
Protocol: Mice were administered intranasally with 1 μg of recombinant mouse IL-4, IL-5, or IL-13 (eBiosciences), 1×10^6 apoptotic Jurkat cells, or PBS as control, for two consecutive days. On the third day, BAL fluid was recovered and centrifuged; the supernatant was stored at −80° C. for subsequent cytokine analysis. IL-4, IL-5, IL-6, and CCL-11/Eotaxin-1 in the BAL fluid of mice that were sensitized with HDM (regimen #1) were quantified by a multiplex Luminex performed by the University of Virginia Flow Cytometry Core Facility. Secretion of IGF-1 from J774 cells, peritoneal macrophages, and BAL fluids, as well as TSLP from BAL fluids, were measured by ELISA (R&D Systems).

[6] = system: MH-S alveolar macrophages; experiment: Microvesicle secretion by MH-S alveolar macrophages; format: cell-based, mouse; conditions: IL-4 treated MH-S alveolar macrophages, counted using qNano
Protocol: MH-S, mouse alveolar macrophages, or primary mouse alveolar macrophages were seeded. After adherence, the media was replaced with 0.22 μm filtered media to remove any contaminating microvesicles. After an overnight incubation, the supernatant was harvested and spun at 5000×g to remove cell debris and apoptotic bodies. The pellet was discarded and the resulting supernatant was filtered through 0.8 μm filter and spun again at 17,000×g. The pelleted microvesicles were then washed with HBSS and then spun again at 17,000×g. For engulfment assays, microvesicles were stained with TAMRA for 20 minutes and then added to BEAS-2B cells for 90 minutes. For flow cytometry, purified particles were stained with CD11c, Siglec F, and Annexin V (BD Biosciences, Cat. No. 550475) and processed on Imagestream™ imaging flow cytometer (Amnis). Microvesicle size distribution was characterized using qNano (IZON Science) with a NP400 membrane and at least 500 particles were counted. Microvesicles were prepared for cryo-electron microscopy using standard methods and imaged on an FEI TF20.

[7] = system: IC-21 cells; experiment: Apoptotic thymocyte engulfment by IC-21 cells; format: cell-based; conditions: indicated concentrations of mouse IGF-1 or human insulin

C[C@@H](N)[C@H]1CC[C@H](C(=O)Nc2ccncc2)CC1 [Y27632, reference compound]
reversal of IGF-1 mediated engulfment suppression in LR73 cells [1]: does not appear to rescue IGF-1 induced engulfment suppression | basal phagocytosis of apoptotic cells with inhibitor alone [1]: basally increases phagocytosis of apoptotic cells

EGF: growth factor of the tested panel of soluble mediators (NSDSECPLSHDGYCLHDGVCMYIEALDKYACNCVVGYIGERCQYRDLKWWELR; Epidermal growth factor; UniProt P01133 971-1023, looked up)
uptake of PtdSer containing liposomes by LR73 cells [2]: not seen | apoptotic cell uptake (engulfment) by LR73 cells [1]: did not alter engulfment | early downstream signaling events (Erk1/2 phosphorylation) [3]: elicited early downstream signaling events

C=C1[C@@H](C)[C@H]2[C@H](Cc3ccccc3)NC(=O)[C@]23[C@H](OC(C)=O)/C=C/[C@@](C)(O)C(=O)[C@@H](C)C/C=C/[C@H]3[C@@H]1O [Cytochalasin D]
effect on IGF-1 induced increase in liposome uptake [2]: blocked the IGF-1 induced increase in liposome uptake | basal uptake of liposomes [2]: did not affect the basal uptake of liposomes | morphology of treated LR73 cells ([2]; for the duration of the assay): appeared morphologically normal | basal phagocytosis of apoptotic cells with inhibitor alone [1]: potently inhibited phagocytosis of apoptotic cells

Cc1[nH]c2ccccc2c1CCNC(=O)c1ccccc1F [CK-666]
effect on IGF-1 induced increase in liposome uptake [2]: minimal effect

C[C@]1(O)C[C@@H](c2nc(-c3ccc4ccc(-c5ccccc5)nc4c3)c3c(N)nccn32)C1 [OSI-906, reference compound]
effect on IGF-1 induced increase in liposome uptake [2]: reduced the increased liposome uptake | reversal of IGF-1 mediated engulfment suppression in LR73 cells [1]: rescued the engulfment capacity of LR73 cells | phosphorylation of IGF-1R and Erk [3]: concomitant decrease in phosphorylation of IGF-1R and Erk

Nc1ncnc2c1c(-c1cccc(OCc3ccccc3)c1)cn2C1CC(CN2CCC2)C1 (centres unmarked) [NVP-AEW541, reference compound]
reversal of IGF-1 mediated engulfment suppression in LR73 cells [1]: rescued the engulfment capacity of LR73 cells | phosphorylation of IGF-1R and Erk [3]: concomitant decrease in phosphorylation of IGF-1R and Erk

C/C1=C/C(=O)O[C@@H]2C[C@@H](CC[C@H](C)/C=C\C=C\CC1)O[C@@](O)([C@@H]1CSC(=O)N1)C2 [Latrunculin A]
effect on IGF-1 induced increase in liposome uptake [2]: reversed IGF-1 mediated enhancement of liposome uptake | basal uptake of liposomes [2]: without affecting the basal uptake of liposomes

PDGF-AA: growth factor of the tested panel of soluble mediators
apoptotic cell uptake (engulfment) by LR73 cells [1]: did not alter engulfment | early downstream signaling events (Erk1/2 phosphorylation) [3]: elicited early downstream signaling events

VEGF
uptake of PtdSer containing liposomes by LR73 cells [2]: not seen | apoptotic cell uptake (engulfment) by LR73 cells [1]: did not alter engulfment | early downstream signaling events (Erk1/2 phosphorylation) [3]: elicited early downstream signaling events

CCn1c(-c2nonc2N)nc2cnc(Oc3cccc(NC(=O)c4ccc(OCCN5CCOCC5)cc4)c3)cc21 [GSK269962, reference compound]
reversal of IGF-1 mediated engulfment suppression in LR73 cells [1]: does not appear to rescue IGF-1 induced engulfment suppression | basal phagocytosis of apoptotic cells with inhibitor alone [1]: basally increases phagocytosis of apoptotic cells

IL-4: cytokine; recombinant mouse IL-4 (eBiosciences)
IGF-1 secretion by peritoneal macrophages [4]: confirmed IGF-1 secretion | IGF-1 in bronchoalveolar lavage (BAL) fluid [5]: increased level of IGF-1 | microvesicles secretion by macrophages [6]: increased microvesicles secretion

insulin: shares structural similarity with IGF-1, lower affinity for IGF-1R
corpse uptake by IC-21 cells [7]: engulf apoptotic cells at normal capacity | apoptotic cell uptake by LR73 cells [1]: could also reduce apoptotic cell uptake

insulin-like growth factor II [IGF-II]
apoptotic cell uptake by LR73 cells [1]: could also reduce apoptotic cell uptake

IGFBP3: IGF binding protein that stabilizes and sequesters IGF-1 (Sigma-Aldrich)
reversal of suppression by macrophage produced IGF-1 ([1]; J774 supernatant incubated with IGFBP3, LR73 cells): reversed by IGFBP3 addition | reversal of IGF-1 mediated engulfment suppression in LR73 cells [1]: restored the phagocytic capability of LR73 cells | basal phagocytosis by LR73 cells ([1]; supernatant of unstimulated J774 cells plus IGFBP3): increases the basal phagocytosis

fibroblast growth factor 2 [FGF2]
apoptotic cell uptake (engulfment) by LR73 cells [1]: did not alter engulfment | early downstream signaling events (Erk1/2 phosphorylation) [3]: elicited early downstream signaling events
